These results are taken from article PMC5761724 (Journal of medicinal chemistry, 2017).

For one data set, the target named is Rpn11 (Homo sapiens, UniProt O00487). Description: Rpn11 fluorescence polarization deubiquitination assay. The data set is classed as biochemical.
The nature of the next data set: Cytotoxicity assay. It is filed as cell-based. Conditions: human, HCT 116 cells.
The target of the next data set is BRISC complex (Homo sapiens, UniProt P46736). The data set is described as follows: BRISC activity assay. Conditions: Figure S1. The data set is classed as biochemical.
Data set [1] relates to Ub^G76V-GFP Hela cells (proteasome activity). Description: Ub^G76V-GFP degradation assay. The data set is classed as cell-based. As to conditions: Homo sapiens, read-out: Ub^G76VGFP Hela Cell IC50.
A further data set addresses T1, AMSH (Homo sapiens, UniProt O95630).
T1 sequence (O95630 1-424): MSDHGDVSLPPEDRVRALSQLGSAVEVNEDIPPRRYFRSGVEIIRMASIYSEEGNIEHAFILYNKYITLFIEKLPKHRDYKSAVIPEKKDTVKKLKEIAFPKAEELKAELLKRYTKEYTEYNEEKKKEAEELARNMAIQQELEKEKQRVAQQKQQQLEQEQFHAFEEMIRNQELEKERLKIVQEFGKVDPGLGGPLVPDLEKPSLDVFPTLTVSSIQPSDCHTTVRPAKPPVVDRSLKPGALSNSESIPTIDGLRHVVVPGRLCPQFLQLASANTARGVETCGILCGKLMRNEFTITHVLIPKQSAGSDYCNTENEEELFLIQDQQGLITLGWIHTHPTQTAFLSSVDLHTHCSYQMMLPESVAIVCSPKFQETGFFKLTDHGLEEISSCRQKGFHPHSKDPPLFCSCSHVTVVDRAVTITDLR
Description: AMSH activity assay. The data set is classed as biochemical.

Another data set has as its target Csn5 (Homo sapiens, UniProt Q92905). Description: CSN5 activity assay. It is filed as biochemical.
[2] abbreviates: HCT 116 Cytotoxicity IC50, Table 2.

With `Sc1cccc2cccnc12` [8TQ, 8-thioquinoline], the “inhibition of Rpn11 in MBP library screen” value at Rpn11 (fragment concentration of 200 μM) was “essentially complete inhibition”. Moreover, the ligand efficiency at Rpn11 (from Rpn11 IC50) was 0.69. In “Cytotoxicity assay” (HCT 116 Cytotoxicity, Table 1), this compound displayed an IC50 at 72 h of 1.3 µM. For the same compound, at BRISC complex, the “inhibition of BRISC” value was “significant inhibition”.

As for `Sc1cccc2ccccc12` [Compound 2], the IC50 at 72 h in the data set “Cytotoxicity assay” (HCT 116 Cytotoxicity, Table 1) is greater than 100 µM.

On to `Cc1cccc2cccnc12` [Compound 3], for which the IC50 at 72 h in the data set “Cytotoxicity assay” (HCT 116 Cytotoxicity, Table 1) was greater than 100 µM.

Compound `CSc1cccc2cccnc12` [Compound 6, 8-(Methylthio)quinoline] displayed an IC50 at 72 h in the data set “Cytotoxicity assay” (HCT 116 Cytotoxicity, Table 1) greater than 100 µM.

The compound `Sc1cccc2ncccc12` [Compound 7c, Quinoline-5-thiol] came in with an IC50 at 72 h in “Cytotoxicity assay” (HCT 116 Cytotoxicity, Table 1) greater than 100 µM.

As to `Sc1ccnc2cccnc12` [Compound 8e, 1,5-Naphthyridine-4-thiol], on Rpn11, the “fold weaker Rpn11 activity compared to 8TQ” value was ~ 6 fold.

`Cc1ccc2cccc(S)c2n1` [Compound 9c, 2-Methylquinoline-8-thiol]: in “Cytotoxicity assay” (setting [2]), the IC50 at 72 h was greater than 50 µM.

For the compound `Cc1ccnc2c(S)cccc12` [Compound 11c, 4-Methylquinoline-8-thiol], the IC50 at 72 h in the data set “Cytotoxicity assay” (setting [2]) is greater than 10 µM.

With `O=C(NCCc1nccs1)c1cnc2c(O)cccc2c1` [Compound 47, 8-Hydroxy-N-(2-(thiazol-2-yl)ethyl)quinoline-3-carboxamide], the IC50 in data set [1] was greater than 100 µM.

For `CSc1cccc2cc(C(=O)NCCc3nccs3)cnc12` [Compound 48, 8-(Methylthio)-N-(2-(thiazol-2-yl)ethyl)quinoline-3-carboxamide], the IC50 in data set [1] was greater than 100 µM.

As to `O=C(NCCc1nccs1)c1cnc2c(S)ccnc2c1` [Compound 50f, 8-Mercapto-N-(2-(thiazol-2-yl)ethyl)-1,5-naphthyridine-3-carboxamide], the IC50 against AMSH was greater than 100 µM; in data set [1] it was greater than 100 µM; against Rpn11 (Rpn11 IC50), roughly 82 µM; at Rpn11 (Rpn11 IC50, Table 5, control compounds), 82 ± 14 µM; at Csn5, greater than 100 µM.
